This note sets out measurements from patent publication US20200109163A1, “CARBONATED BEVERAGE AND METHOD FOR CARBONATION ENHANCEMENT” (INTERNATIONAL FLAVORS & FRAGRANCES INC., priority 2018, published 2020).

Holding throughout (format): in vivo
Experiment [1] can be described thus: Carbonation effect of structural analogs in lime-flavored carbonated water, trained panel. How it is done:
Selected structural analogs of sitosterol were tested for their ability to enhance the carbonation effect of a carbonated beverage. The analogs were used in amounts of 400 ppb and 200 ppb to 5 ppm. The sensory evaluation was carried by a trained panel that tasted each of the compounds in a lime-flavored carbonated water (Vintage seltzer water). The intensity of carbonation effect was rated and compared to other samples (Table 3)

The nature of experiment [2]: Carbonation effect intensity in carbonated water (7.2 g/L CO2), panel, scale 0 to 10. The following applies: 2.5 ppt in solution of 7.2 g/L CO2; scale 0 to 10 (0=none, 4=medium, 7=high, 10=extremely high); control 4.88 ± 2.53. How it is done: (§1) Carbonated water containing carbon dioxide at 6.0, 7.2 and 8.0 g/L, respectively, were also prepared.
A β-sitosterol solution (prepared in Example 1) was added to the carbonated water (7.2 g/L CO2) (prepared in Example 1) to yield a final concentration of 2.5 ppt. The carbonation effect of the obtained sample was evaluated and compared by a panel with the carbonated water using an intensity scale of 0 to 10, where 0=none, 4=medium, 7=high and 10=extremely high. The intensity of carbonation effect was rated. Mean (“Carbonation Intensity”) and standard error of the mean (“SE”, ±) were obtained (Table 2).

A short description of experiment [3]: Alcohol sensation with varying amounts of alcohol, panel comparison with solutions at higher ABV. How it is done:
(§2) Alcohol solutions with ABV ranging from 8.75% to […] were prepared by diluting CAPTAIN MORGAN® Original Spiced Rum (35% ABV) (Diageo North America Inc.) in varying amounts of water.
A β-sitosterol solution (prepared in Example 1) was added to alcohol solutions at 8.75% ABV, 17.5% ABV and 21.75% ABV (prepared in Example 1), respectively, to yield a final concentration of 25 ppb β-sitosterol. The alcohol sensation of the obtained samples was evaluated and compared by a panel with alcohol solutions at higher levels of ABV.

The nature of experiment [4]: Alcohol sensation with varying amounts of β-sitosterol in alcohol solution at 17.5% ABV. How it is done: as §2
A series of β-sitosterol solutions (prepared in Example 1) were added to the alcohol solution at 17.5% ABV (prepared in Example 1) to yield final concentrations of β-sitosterol ranging from 3 to 500 ppb. The alcohol sensation of the obtained samples containing different amounts of β-sitosterol was evaluated.

A short description of experiment [5]: Flavor of β-sitosterol solutions in water. To be noted: solutions 2.5 to 600 ppb in water.
Experiment [6] is described as follows: Alcohol sensation intensity in alcohol solution at 6% ABV, panel, scale 0 to 10. The following applies: 100 ppb in solution of 6% ABV; scale 0 to 10 (0=none, 4=medium, 7=high, 10=extremely high); control 4.38 ± 0.32. How it is done:
Alcohol solution at 6% ABV was prepared by adding ethanol in water; and
A β-sitosterol solution (prepared in Example 1) was added to the alcohol solution at 6% ABV (prepared in Example 1) to yield a final concentration of 100 ppb. The alcohol sensation of the obtained sample was evaluated and compared by a panel with the alcohol solution at 6% ABV using an intensity scale of 0 to 10, where 0=none, 4=medium, 7=high and 10=extremely high. The intensity of alcohol sensation was rated. Mean (“Alcohol Intensity”) and standard error of the mean (“SE”, ±) were obtained (Table 1).

Experiment [7] can be described thus: Carbonation sensation with varying amounts of carbonation. The following applies: 2.5 ppt in carbonated water containing 6.0, 7.2 or 8.0 g/L CO2, all samples. How it is done:
as §1
A β-sitosterol solution (prepared in Example 1) was added to carbonated water containing 6.0, 7.2 or 8.0 g/L CO2 (prepared in Example 1), respectively, to yield a final concentration of 2.5 ppt β-sitosterol. The carbonation sensation of the obtained samples was evaluated.

The nature of experiment [8]: Carbonation sensation with varying amounts of β-sitosterol in carbonated water (7.2 g/L CO2). How it is done:
as §1
A series of β-sitosterol solutions (prepared in Example 1) were added to carbonated water (7.2 g/L CO2) (prepared in Example 1) to yield final concentrations ranging from 0.1 ppt to 50 ppt. The carbonation sensation of the obtained samples containing different amounts of β-sitosterol was evaluated.

The nature of experiment [9]: Alcohol impression in alcohol-free beer, panel comparison with alcohol solutions. The following applies: 25 ppb in Brahma 0.0% alcohol-free beer. How it is done: Alcohol solutions at 1% ABV, 2% ABV, 2.5% ABV, 3% ABV and 5% ABV were prepared by adding varying amounts of ethanol in Brahma 0.0% alcohol-free beer (Anheuser-Busch InBev);
A β-sitosterol solution (prepared in Example 1) was added in Brahma 0.0% alcohol-free beer to yield a final concentration of 25 ppb. The alcohol impression of the obtained sample was evaluated and compared by a panel with alcohol solutions at 1% ABV, 2% ABV, 2.5% ABV, 3% ABV and 5% ABV (prepared in Example 1). β-Sitosterol (25 ppb) provided an equal level of alcohol impression as the alcohol solution at 2.5% ABV. Accordingly, β-Sitosterol provided alcohol sensation in alcohol-free beverages.

The mark [10] stands for this setting: 200 ppb in lime-flavored carbonated water (Vintage seltzer water).
[11] abbreviates: 200 ppb-5 ppm in lime-flavored carbonated water (Vintage seltzer water).

As to `CC(C)(O)[C@@H]1CC[C@](C)([C@H]2[C@@H](O)C[C@@]3(C)[C@@H]4C[C@H](O[C@@H]5O[C@H](CO)[C@@H](O)[C@H](O)[C@H]5O)[C@H]5C(C)(C)[C@@H](O[C@@H]6OC[C@@H](O)[C@H](O)[C@H]6O)CC[C@@]56C[C@@]46CC[C@]23C)O1` [Astragaloside IV], the “Carbonation Effect” value in [1] (setting [10]) was 200 ppb: More impactful, long lasting, very.

Turning to `C=C(C)[C@@H]1CC[C@]2(CO)CC[C@]3(C)[C@H](CC[C@@H]4[C@@]5(C)CC[C@H](O)C(C)(C)[C@@H]5CC[C@]43C)[C@@H]12` [Betulin], the “Carbonation Effect” value in experiment [1] (setting [10]) is on record as 200 ppb: Long lasting popping, sour, works with.

`C[C@H](CCC(=O)O)[C@H]1CC[C@H]2[C@@H]3[C@H](O)C[C@@H]4C[C@H](O)CC[C@]4(C)[C@H]3CC[C@]12C` [Chenodeoxycholic acid]: the “Carbonation Effect” value in experiment [1] (setting [11]) is on record as 200 ppb-5 ppm: Adds more violent upfront.

Take `CC(C)CCC[C@@H](C)[C@H]1CC[C@H]2[C@@H]3CC=C4C[C@@H](O)CC[C@]4(C)[C@H]3CC[C@]12C` [Cholesterol]: the “Carbonation Effect” value in experiment [1] (setting [11]) was 200 ppb-5 ppm: Very similar to Deoxycholic.

For the molecule `C[C@H](CCC(=O)O)[C@H]1CC[C@H]2[C@@H]3[C@H](O)C[C@@H]4C[C@H](O)CC[C@]4(C)[C@H]3C[C@H](O)[C@]12C` [Cholic acid], the “Carbonation Effect” value in [1] (setting [10]) is on record as 200 ppb: More tingly bubbles on tongue, linger,; in [1] (400 ppb in lime-flavored carbonated water (Vintage seltzer water)), 400 ppb: Very foamy, foam builds, lingering.

With `C[C@@H]1CC[C@@]2(OC1)O[C@H]1C[C@H]3[C@@H]4CC=C5C[C@@H](O)CC[C@]5(C)[C@H]4CC[C@]3(C)[C@H]1[C@@H]2C` [Diosgenin], in experiment [1] (setting [11]), the “Carbonation Effect” value is listed as 200 ppb-5 ppm: Not much effect on carbonation,.

Regarding `C[C@H](CCC(=O)NCC(=O)O)[C@H]1CC[C@H]2[C@@H]3[C@H](O)C[C@@H]4C[C@H](O)CC[C@]4(C)[C@H]3C[C@H](O)[C@]12C` [Glycocholic acid hydrate], in experiment [1] (setting [10]), the “Carbonation Effect” value is on record as 200 ppb: Longer lasting bubbles than control,.

For the molecule `C[C@H](CCC(=O)O)[C@H]1CC[C@H]2[C@@H]3C[C@H](O)[C@@H]4C[C@H](O)CC[C@]4(C)[C@H]3CC[C@]12C` [Hyodeoxycholic acid], the “Carbonation Effect” value in experiment [1] (setting [10]) is 200 ppb: Very foamy, fast bubbles upfront,.

Consider `C[C@H](CCC(=O)NCCS(=O)(=O)[O-])[C@H]1CC[C@H]2[C@@H]3[C@@H](O)C[C@@H]4C[C@H](O)CC[C@]4(C)[C@H]3CC[C@]12C.[Na+]` [Sodium tauroursodeoxycholate], for which the “Carbonation Effect” value in [1] (setting [10]) is 200 ppb: Very impactful, numbing, slightly more.

For `CC[C@H](/C=C/[C@@H](C)[C@H]1CC[C@H]2[C@@H]3CC=C4C[C@@H](O)CC[C@]4(C)[C@H]3CC[C@]12C)C(C)C` [Stigmasterol], the “Carbonation Effect” value in experiment [1] (setting [11]) is recorded as 200 pb-5 ppm: 5 ppm is a good level, adds more.

As to `CC[C@H](CC[C@@H](C)[C@H]1CC[C@H]2[C@@H]3CC=C4C[C@@H](O[C@@H]5O[C@H](CO)[C@@H](O)[C@H](O)[C@H]5O)CC[C@]4(C)[C@H]3CC[C@]12C)C(C)C` [β-Sitosterol β-D-glucoside, Daucosterol, β-Sitosterol β-D-glucoside], the “Carbonation Effect” value in [1] (setting [11]) is recorded as 200 ppb-5 ppm: Slight tingly tip of tongue,.

Take `CC[C@H](CC[C@@H](C)[C@H]1CC[C@H]2[C@@H]3CC=C4C[C@@H](O)CC[C@]4(C)[C@H]3CC[C@]12C)C(C)C` [β-sitosterol, (3S,8S,9S,10R,13R,14S,17R)-17-((1R,4R)-4-ethyl-1,5-dimethyl-hexyl)-10,13-dimethyl-2,3,4,7,8,9,10,11,12,13,14,15,16,17-tetradecahydro-1H-cyclopenta[a]phenanthren-3-ol]: the “Mean Carbonation Intensity ± SE” value in [2] turned out to be 7.19 ± 1.73. Also, the “Alcohol sensation at the level of an alcohol solution at” value in experiment [3] (25 ppb in alcohol solution at 8.75% ABV) was 10 % ABV; in [3] (25 ppb in alcohol solution at 17.5% ABV), 22.5 % ABV; in experiment [3] (25 ppb in alcohol solution at 21.75% ABV), 35 % ABV. Besides, the Alcohol sensation entry was “slight but noticeable increase in alcohol sensation” in experiment [4] (3 ppb in alcohol solution at 17.5% ABV) and “clear increase in alcohol intensity” in experiment [4] (higher concentrations (above 3 ppb, up to 500 ppb) in alcohol solution at 17.5% ABV). Moreover, the “Enhancement of alcohol sensation” value in experiment [4] (200 ppb in alcohol solution at 17.5% ABV) is listed as “reached a stable plateau”. Also, the “Flavor of the compound itself” value in experiment [5] was “no noticeable flavor itself”. Moreover, in experiment [6], the “Mean Alcohol Intensity ± SE” value came out at 7.21 ± 0.27. Moreover, the Carbonation sensation entry in experiment [7] was “provided enhancement of carbonation sensation”. Moreover, the values for the Carbonation perception result in experiment [8] (0.1 ppt in carbonated water (7.2 g/L CO2)) and in experiment [8] (2.5 ppt in carbonated water (7.2 g/L CO2)) were “slight increase in carbonation perception” and “clear increase in carbonation perception”, respectively. Further, the “Enhancement of carbonation effect” value in experiment [8] (5 ppt or higher in carbonated water (7.2 g/L CO2)) is “reached a stable plateau”. The “Alcohol impression, equal level as alcohol solution at” value in experiment [9] is given as 2.5 % ABV.
